Laboratory results taken from ChEMBL document CHEMBL4184137, “Lysine Deacetylase Inhibitors in Parasites: Past, Present, and Future Perspectives” (J Med Chem, 2017).
Each block holds one compound with its values, some of them ahead of it. *1 amine or outer side, *2 acyl side, *3 side chain or, on linkers, in order; H or OH if unused. Where a SMILES comes first, the peptide text is derived from it. Bridges are numbered along the chain shown (N, C = ends). [ ]: non-standard residue; d: D form. X1 = CC(C)CCCCCCCCC[C@H](CC(=O)[*:1])O[*:2]

Experiments:
Plasmodium falciparum [1] = assay: Gametocytocidal activity against transgenic GFP-fused Plasmodium falciparum NF54 […] gametocytes after 24 hrs by MitoTracker Red CM-H2XRos late-stage gametocyte imaging-based viability assay; format: functional, organism-based; details: NF54, 24 h
[2] = Selectivity index, ratio of IC50 for human NFF cells to IC50 for transgenic GFP-fused Plasmodium falciparum NF54 […] gametocyte; format: toxicity; details: read-out: Ratio IC50
[3] = Selectivity index, ratio of IC50 for human NFF cells to IC50 for Plasmodium falciparum; format: toxicity; details: read-out: Ratio IC50
NFF = assay: Cytotoxicity against human NFF cells after 72 hrs by SRB assay; format: cell-based
Plasmodium falciparum [4] = assay: Antimalarial activity against Plasmodium falciparum infected in type O-positive erythrocytes by [3H]-hypoxanthine incorporation assay; format: functional, organism-based
Plasmodium falciparum [5] = assay: Antiplasmodial activity against Plasmodium falciparum 3D7 assessed as growth inhibition after 24 hrs by measuring incorporation of [3H]-hypoxanthine by liquid scintillation counting method; format: functional, organism-based
[6] = Inhibition of Plasmodium falciparum Sir2A
[7] = molecular target: T1, NAD-dependent protein deacetylase sirtuin-1 (Homo sapiens, UniProt Q96EB6); assay: Inhibition of human SIRT1
T1 sequence (Q96EB6 whole entry): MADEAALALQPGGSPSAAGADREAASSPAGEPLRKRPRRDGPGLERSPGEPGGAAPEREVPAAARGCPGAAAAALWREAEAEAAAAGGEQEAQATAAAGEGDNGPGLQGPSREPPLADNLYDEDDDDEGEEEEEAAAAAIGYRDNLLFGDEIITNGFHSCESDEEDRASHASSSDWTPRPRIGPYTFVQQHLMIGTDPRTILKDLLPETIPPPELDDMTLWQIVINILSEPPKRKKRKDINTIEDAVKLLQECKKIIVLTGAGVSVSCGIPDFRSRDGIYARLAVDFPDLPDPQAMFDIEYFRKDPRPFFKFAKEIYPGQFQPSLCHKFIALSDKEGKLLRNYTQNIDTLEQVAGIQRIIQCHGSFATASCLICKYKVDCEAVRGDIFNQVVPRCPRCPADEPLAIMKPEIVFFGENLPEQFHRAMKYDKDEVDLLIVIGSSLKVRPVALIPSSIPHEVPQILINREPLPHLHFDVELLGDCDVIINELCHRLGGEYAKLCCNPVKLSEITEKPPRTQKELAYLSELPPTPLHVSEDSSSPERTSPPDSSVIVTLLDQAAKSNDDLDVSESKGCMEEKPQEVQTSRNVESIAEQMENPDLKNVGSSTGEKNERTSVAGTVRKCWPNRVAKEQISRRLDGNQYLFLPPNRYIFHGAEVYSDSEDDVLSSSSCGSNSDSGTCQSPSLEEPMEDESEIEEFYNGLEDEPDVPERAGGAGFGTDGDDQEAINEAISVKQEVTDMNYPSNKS

HEK293 = assay: Cytotoxicity against HEK293 cells after 48 hrs by resazurin assay; format: cell-based; details: Homo sapiens, HEK293, 48 h
[8] = tested on: Trypanosoma brucei brucei; assay: Antitrypanosomal activity against Trypanosoma brucei brucei measured after 22 hrs by fluorescence-based Alamar blue viability assay; format: functional, organism-based
Plasmodium falciparum [9] = assay: Antimalarial activity against Plasmodium falciparum infected in human erythrocytes preincubated for 48 hrs followed by [3H]-hypoxanthine addition measured after 24 hrs by scintillation counting assay; format: functional, organism-based
[10] = molecular target: T2, Histone deacetylase (Plasmodium falciparum) (UniProt Q9XYC7); assay: Inhibition of recombinant HDAC1 in recombinant Plasmodium falciparum at 1 uM using Ac-RGK(Ac)-AMC fluorogenic peptide as substrate preincubated for 1 hr followed by substrate addition measured after 10 min by fluorescence assay
T2 sequence (whole entry): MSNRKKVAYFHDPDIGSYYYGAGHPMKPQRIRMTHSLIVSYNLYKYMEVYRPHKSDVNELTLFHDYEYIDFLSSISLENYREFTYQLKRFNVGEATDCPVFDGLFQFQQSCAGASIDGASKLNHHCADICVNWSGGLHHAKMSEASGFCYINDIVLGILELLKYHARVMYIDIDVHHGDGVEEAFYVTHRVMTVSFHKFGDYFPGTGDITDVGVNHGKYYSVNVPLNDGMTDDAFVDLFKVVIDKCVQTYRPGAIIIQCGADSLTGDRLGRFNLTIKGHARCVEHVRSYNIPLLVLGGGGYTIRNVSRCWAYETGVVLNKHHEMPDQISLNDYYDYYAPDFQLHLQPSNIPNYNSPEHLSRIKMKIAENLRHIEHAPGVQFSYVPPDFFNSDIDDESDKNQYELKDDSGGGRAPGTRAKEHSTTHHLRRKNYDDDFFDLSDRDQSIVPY

Schistosoma mansoni [11] = assay: Antiparasitic activity against Schistosoma mansoni assessed cell viability at 20 uM after 5 days; format: functional
Schistosoma mansoni [12] = assay: Antiparasitic activity against Schistosoma mansoni assessed as pairing at 20 uM after 6 days relative to control; format: functional
Leishmania infantum [13] = assay: Antiproliferative activity against promastigote stage of Leishmania infantum measured for 1 min and 45 secs by propidium iodide staining-based flow cytometry; format: functional, organism-based
Leishmania infantum [14] = assay: Antiproliferative activity against amastigote stage of Leishmania infantum measured for 1 min and 45 secs by propidium iodide staining-based flow cytometry; format: functional, organism-based
Schistosoma mansoni [15] = assay: Antiparasitic activity against Schistosoma mansoni assessed as cumulative egg reduction at 20 uM; format: functional; set-up: scale not given: the % may be the effect or the level left
Leishmania infantum [16] = assay: Antileishmanial activity against amastigote stage of Leishmania infantum MHOM/MA671TMAP263 expressing luciferase after 72 hrs by luciferase assay; format: functional, organism-based; details: MHOM/MA671TMAP263, 72 h
[17] = Selectivity index, ratio of IC50 for African green monkey Vero cells to IC50 for Plasmodium falciparum D6; format: toxicity; details: read-out: Ratio IC50
Plasmodium falciparum [18] = assay: Antimalarial activity against Plasmodium falciparum using Malstat reagent by parasite lactate dehydrogenase assay; format: functional, organism-based
[19] = Selectivity index, ratio of IC50 for African green monkey Vero cells to IC50 for Plasmodium falciparum W2; format: toxicity; details: read-out: Ratio IC50
Histone deacetylase = molecular target: T3, Histone deacetylase (Plasmodium falciparum, UniProt Q9XYC7); assay: Inhibition of recombinant Plasmodium falciparum HDAC1 using HDAC substrate-3 after 30 mins by fluorescence assay
T3 sequence (Q9XYC7 whole entry): T2 sequence (whole entry)

Compound: O=C(CCCCCONC(=O)Nc1cccc2ccccc12)NO
IC50 (Plasmodium falciparum [1]): 2120 to 2250 nM | selectivity ratio [2]: 9 | selectivity ratio [3]: 36 to 78 | IC50 (NFF): 19500 nM | IC50 (Plasmodium falciparum [4]): 250 to 320 nM

Compound: CC(C)CCCCCCCCC[C@@H]1CC(=O)N[C@@H](CCC(=O)O)C(=O)N[C@@H](CC(C)C)C(=O)N[C@H](CC(C)C)C(=O)N[C@@H](C(C)C)C(=O)N[C@@H](CC(=O)O)C(=O)N[C@H](CC(C)C)C(=O)N[C@@H](CC(C)C)C(=O)O1 [SURFACTIN] (EL[dL]VD[dL]L; linker N-C via X1)
IC50 (Plasmodium falciparum [5]): 9000 nM | IC50 [6]: 35000 nM | IC50 [7]: > 600000 nM

Compound: CC[C@H]1OC(=O)[C@H](C)[C@@H](O[C@H]2C[C@@](C)(OC)[C@@H](O)[C@H](C)O2)[C@H](C)[C@@H](O[C@@H]2O[C@H](C)C[C@H](N(C)Cc3ccc(-c4cn(CCCCCCC(=O)NO)nn4)cc3)[C@H]2O)[C@](C)(O)C[C@@H](C)CN(C)[C@H](C)[C@@H](O)[C@]1(C)O
selectivity ratio [17]: > 20.7 | IC50 (Plasmodium falciparum [18]): 94 to 226 nM | selectivity ratio [19]: > 47.6 | IC50 (Histone deacetylase): 29 nM

The next lines start with results.

IC50 [8]: 2600 nM | IC50 (Plasmodium falciparum [9]): 60 to 130 nM | inhibition [10]: 78.5%
Compound: O=C(/C=C/c1cccc(S(=O)(=O)Nc2ccccc2)c1)NO [BELINOSTAT]
IC50 (HEK293): 1400 to 2400 nM | IC50 (NFF): 1400 to 2400 nM

IC50 (Leishmania infantum [16]): 30000 nM | IC50 [6]: > 50000 nM
Compound: CC(NC(=O)c1ccccc1/N=C/c1c(O)ccc2ccccc12)c1ccccc1 (stereo not given) [SIRTINOL]
Activity (Schistosoma mansoni [11]): 100% | IC50 (Plasmodium falciparum [5]): 9000 to 13000 nM | Activity (Schistosoma mansoni [12]): 75% | IC50 (Leishmania infantum [13]): > 60000 nM | IC50 (Leishmania infantum [14]): 30000 nM | Activity (Schistosoma mansoni [15]): 42%
